{"source": "paper PMC6440482", "about": "(European journal of pharmacology, 2018)", "key": {"DAT": {"target": "DAT (Mus musculus, UniProt Q61327)", "sequence (Q61327 whole entry)": "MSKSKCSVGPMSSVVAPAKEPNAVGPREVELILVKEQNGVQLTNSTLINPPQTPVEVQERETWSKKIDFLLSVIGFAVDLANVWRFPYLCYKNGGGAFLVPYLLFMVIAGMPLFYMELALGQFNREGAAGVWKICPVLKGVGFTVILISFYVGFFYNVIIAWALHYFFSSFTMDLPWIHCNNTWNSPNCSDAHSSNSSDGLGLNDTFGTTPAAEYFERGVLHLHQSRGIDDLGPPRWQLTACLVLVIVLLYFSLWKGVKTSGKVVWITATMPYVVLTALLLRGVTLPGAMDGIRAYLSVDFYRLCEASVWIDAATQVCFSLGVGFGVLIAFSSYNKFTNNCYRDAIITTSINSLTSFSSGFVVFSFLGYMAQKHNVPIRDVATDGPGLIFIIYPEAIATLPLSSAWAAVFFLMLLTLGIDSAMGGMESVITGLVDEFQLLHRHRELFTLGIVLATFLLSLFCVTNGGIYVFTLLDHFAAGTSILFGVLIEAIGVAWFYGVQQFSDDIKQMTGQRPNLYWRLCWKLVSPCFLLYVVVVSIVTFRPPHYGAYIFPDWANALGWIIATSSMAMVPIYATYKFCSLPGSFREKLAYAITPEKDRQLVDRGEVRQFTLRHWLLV", "experiment": "[3H]WIN 35428 binding displacement in mouse striatum homogenate"}, "mDAT": {"target": "mDAT (Mus musculus, UniProt Q61327)", "sequence (Q61327 whole entry)": "as above", "experiment": "[3H]MPP+ uptake inhibition in transiently transfected mDAT-HEK cells", "assay_type": "cell-based"}, "mNET": {"target": "mNET (Mus musculus, UniProt O55192)", "sequence (O55192 whole entry)": "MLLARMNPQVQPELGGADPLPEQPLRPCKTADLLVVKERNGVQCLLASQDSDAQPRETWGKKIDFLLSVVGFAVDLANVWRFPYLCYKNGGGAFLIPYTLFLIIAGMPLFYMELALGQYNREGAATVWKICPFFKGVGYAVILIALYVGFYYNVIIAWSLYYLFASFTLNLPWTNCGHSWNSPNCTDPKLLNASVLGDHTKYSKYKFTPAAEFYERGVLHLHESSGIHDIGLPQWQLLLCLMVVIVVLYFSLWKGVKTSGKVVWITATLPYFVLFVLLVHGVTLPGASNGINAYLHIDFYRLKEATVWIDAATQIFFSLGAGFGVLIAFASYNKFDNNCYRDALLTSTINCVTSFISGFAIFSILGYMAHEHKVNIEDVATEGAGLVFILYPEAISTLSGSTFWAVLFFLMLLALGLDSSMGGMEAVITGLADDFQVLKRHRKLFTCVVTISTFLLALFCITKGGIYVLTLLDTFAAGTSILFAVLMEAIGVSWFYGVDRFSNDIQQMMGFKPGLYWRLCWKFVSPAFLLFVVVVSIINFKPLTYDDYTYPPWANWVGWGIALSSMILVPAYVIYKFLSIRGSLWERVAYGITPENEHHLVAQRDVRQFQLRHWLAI", "experiment": "[3H]MPP+ uptake inhibition in transiently transfected mNET-HEK cells", "assay_type": "cell-based"}, "mSERT": {"target": "mSERT (Mus musculus, UniProt Q60857)", "sequence (Q60857 whole entry)": "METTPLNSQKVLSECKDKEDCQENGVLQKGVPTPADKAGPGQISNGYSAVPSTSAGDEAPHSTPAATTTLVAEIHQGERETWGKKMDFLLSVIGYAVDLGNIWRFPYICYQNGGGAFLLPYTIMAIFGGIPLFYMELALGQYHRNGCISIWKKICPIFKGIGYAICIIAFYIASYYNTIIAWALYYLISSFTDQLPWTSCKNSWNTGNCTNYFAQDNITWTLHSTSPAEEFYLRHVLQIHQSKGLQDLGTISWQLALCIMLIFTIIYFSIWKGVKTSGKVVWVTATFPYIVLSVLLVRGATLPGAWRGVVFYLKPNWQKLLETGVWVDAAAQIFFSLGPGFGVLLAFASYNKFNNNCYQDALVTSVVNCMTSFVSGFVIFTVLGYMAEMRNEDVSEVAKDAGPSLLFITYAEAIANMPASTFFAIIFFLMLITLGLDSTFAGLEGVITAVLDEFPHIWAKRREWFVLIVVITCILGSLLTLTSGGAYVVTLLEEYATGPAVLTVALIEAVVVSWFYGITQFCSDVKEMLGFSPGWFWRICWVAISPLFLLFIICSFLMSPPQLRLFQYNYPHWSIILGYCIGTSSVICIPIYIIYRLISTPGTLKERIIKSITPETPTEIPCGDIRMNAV", "experiment": "[3H]5-HT uptake inhibition in transiently transfected mSERT-HEK cells", "assay_type": "cell-based"}, "hOCT2": {"target": "T1, hOCT2 (Homo sapiens, UniProt O15244)", "T1 sequence (O15244 1-555)": "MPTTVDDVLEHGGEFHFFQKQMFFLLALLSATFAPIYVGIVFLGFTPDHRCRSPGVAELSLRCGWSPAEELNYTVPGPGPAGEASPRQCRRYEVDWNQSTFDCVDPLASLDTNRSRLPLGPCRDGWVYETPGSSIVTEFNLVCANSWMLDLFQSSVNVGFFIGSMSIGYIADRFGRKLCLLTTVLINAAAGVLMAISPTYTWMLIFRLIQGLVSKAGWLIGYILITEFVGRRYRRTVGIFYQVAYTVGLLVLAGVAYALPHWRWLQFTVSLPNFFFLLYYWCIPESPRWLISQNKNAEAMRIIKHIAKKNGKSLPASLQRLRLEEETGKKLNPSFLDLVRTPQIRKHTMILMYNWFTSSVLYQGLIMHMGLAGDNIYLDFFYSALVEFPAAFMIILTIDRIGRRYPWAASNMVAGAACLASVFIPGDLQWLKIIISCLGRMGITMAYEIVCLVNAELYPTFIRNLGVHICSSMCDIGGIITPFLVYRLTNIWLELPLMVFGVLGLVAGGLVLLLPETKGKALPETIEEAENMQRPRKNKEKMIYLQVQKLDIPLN", "experiment": "[3H]MPP+ uptake competition in stable hOCT2-HEK cells", "assay_type": "cell-based", "conditions": "10 min room temperature"}, "hOCT3": {"target": "T2, hOCT3 (Homo sapiens, UniProt O75751)", "T2 sequence (O75751 1-556)": "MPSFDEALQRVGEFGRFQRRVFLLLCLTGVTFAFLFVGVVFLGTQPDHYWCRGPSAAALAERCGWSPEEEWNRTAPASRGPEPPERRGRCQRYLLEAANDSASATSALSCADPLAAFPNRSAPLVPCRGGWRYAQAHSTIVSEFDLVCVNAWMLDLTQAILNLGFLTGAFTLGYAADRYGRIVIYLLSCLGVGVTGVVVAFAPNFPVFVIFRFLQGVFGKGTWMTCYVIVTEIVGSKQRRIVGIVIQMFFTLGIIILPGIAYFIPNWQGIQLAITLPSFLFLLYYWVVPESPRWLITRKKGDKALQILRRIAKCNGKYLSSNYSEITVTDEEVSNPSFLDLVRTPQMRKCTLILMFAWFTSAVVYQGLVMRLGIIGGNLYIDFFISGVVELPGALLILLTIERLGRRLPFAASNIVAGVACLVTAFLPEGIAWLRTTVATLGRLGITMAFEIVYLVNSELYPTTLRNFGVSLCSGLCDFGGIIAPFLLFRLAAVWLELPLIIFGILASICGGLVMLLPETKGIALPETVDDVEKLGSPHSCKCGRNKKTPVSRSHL", "experiment": "[3H]MPP+ uptake competition in stable hOCT3-HEK cells", "assay_type": "cell-based", "conditions": "10 min room temperature"}, "hPMAT": {"target": "T3, hPMAT (Homo sapiens, UniProt Q7RTT9)", "T3 sequence (Q7RTT9 1-530)": "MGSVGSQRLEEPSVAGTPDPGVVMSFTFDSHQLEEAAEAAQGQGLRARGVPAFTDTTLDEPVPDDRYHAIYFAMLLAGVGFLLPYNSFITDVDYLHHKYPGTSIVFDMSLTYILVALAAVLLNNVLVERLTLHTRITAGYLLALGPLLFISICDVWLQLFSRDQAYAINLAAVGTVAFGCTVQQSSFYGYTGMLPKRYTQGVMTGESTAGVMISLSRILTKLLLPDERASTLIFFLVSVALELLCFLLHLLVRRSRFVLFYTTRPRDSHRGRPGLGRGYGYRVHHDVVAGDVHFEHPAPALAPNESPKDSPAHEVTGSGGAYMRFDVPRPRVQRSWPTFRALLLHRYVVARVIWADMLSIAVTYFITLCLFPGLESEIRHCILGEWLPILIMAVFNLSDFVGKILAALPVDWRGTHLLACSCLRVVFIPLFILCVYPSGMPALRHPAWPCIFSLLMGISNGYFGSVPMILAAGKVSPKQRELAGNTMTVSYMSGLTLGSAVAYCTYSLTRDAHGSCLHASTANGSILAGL", "experiment": "[3H]MPP+ uptake competition in stable hPMAT-HEK cells", "assay_type": "cell-based"}, "[1]": {"conditions": "read-out: DAT [3H]WIN 35428 IC50, mouse striatum homogenate, 4 nM [3H]WIN 35428, 60 min"}, "[2]": {"conditions": "read-out: hOCT2-HEK IC50, 10 nM [3H]MPP+ uptake"}, "[3]": {"conditions": "read-out: hOCT3-HEK IC50, 10 nM [3H]MPP+ uptake"}, "[4]": {"conditions": "read-out: hPMAT-HEK IC50, 10 nM [3H]MPP+ uptake, 10 min room temperature"}}, "note": "Where “and” joins values, the source holds several entries; their conditions need not be identical. Equal entries are not always repeated. Where two headings read alike, the source gives them in different places."}
{"smiles": "COC(=O)[C@H]1[C@@H](c2ccc(F)cc2)C[C@@H]2CC[C@H]1N2C", "note": "[WIN 35428]", "values": [{"measurement": "IC50", "setting": "DAT; [1]", "result": 0.06, "unit": "µM"}]}
{"smiles": "NCCc1ccc(O)c(O)c1", "note": "[Dopamine]", "values": [{"measurement": "IC50", "setting": "DAT", "result": 99.8, "unit": "µM"}]}
{"smiles": "CCN1C(=Cc2ccc3ccccc3[n+]2CC)C=Cc2ccccc21", "note": "[Decynium 22, 1,1’-diethyl-2,2’-cyanine]", "values": [{"measurement": "IC50", "setting": "DAT; [1]", "result": 10.8, "unit": "µM"}, {"measurement": "IC50", "setting": "mDAT; read-out: mDAT-HEK IC50, 20 nM [3H]MPP+ uptake, 3 min", "result": 12.9, "unit": "µM"}, {"measurement": "IC50", "setting": "mNET; read-out: mNET-HEK IC50, 20 nM [3H]MPP+ uptake, 3 min", "result": 35, "unit": "µM"}, {"measurement": "IC50", "setting": "mSERT; read-out: mSERT-HEK IC50, 100 nM [3H]5-HT uptake, 1 min", "result": 7.9, "unit": "µM"}, {"measurement": "IC50", "setting": "mSERT; read-out: mSERT-HEK IC50, 100 nM [3H]5-HT uptake, 1 min, listed as D22", "result": 8, "unit": "µM"}, {"measurement": "IC50", "setting": "hOCT2; [2]", "result": 10, "unit": "µM"}, {"measurement": "IC50", "setting": "hOCT3; [3]", "result": 0.2, "unit": "µM"}, {"measurement": "IC50", "setting": "hPMAT; [4]", "result": 1.1, "unit": "µM"}]}
{"smiles": "C[n+]1ccc(-c2ccccc2)cc1", "note": "[MPP^+, 1-methyl-4-phenylpyridinium]", "values": [{"measurement": "IC50", "setting": "hOCT2; [2]", "result": 110, "unit": "µM"}, {"measurement": "IC50", "setting": "hOCT3; [3]", "result": 91, "unit": "µM"}, {"measurement": "IC50", "setting": "hPMAT; [4]", "result": 1040, "unit": "µM"}]}
{"smiles": "COC(=O)[C@H]1[C@@H](OC(=O)c2ccccc2)C[C@@H]2CC[C@H]1N2C", "note": "[Cocaine]", "values": [{"measurement": "IC50", "setting": "mDAT; mDAT-HEK IC50, 20 nM [3H]MPP+ uptake, 3 min", "result": 0.18, "unit": "µM"}, {"measurement": "IC50", "setting": "mNET; mNET-HEK IC50, 20 nM [3H]MPP+ uptake, 3 min", "result": "1.2 µM and 1.18 µM"}, {"measurement": "IC50", "setting": "mSERT; mSERT-HEK IC50, 100 nM [3H]5-HT uptake, 1 min", "result": "0.5 µM and 0.51 µM"}]}
{"smiles": "C[C@]12C[C@H](O)[C@H]3[C@@H](CCC4=CC(=O)CC[C@@]43C)[C@@H]1CC[C@@H]2C(=O)CO", "note": "[Corticosterone]", "values": [{"measurement": "IC50", "setting": "mDAT", "result": "364 µM and 365 µM"}, {"measurement": "IC50", "setting": "mNET", "result": 840, "unit": "µM"}, {"measurement": "IC50", "setting": "mSERT", "result": 445, "unit": "µM"}, {"measurement": "IC50", "setting": "hOCT2; hOCT2-HEK IC50, 10 nM [3H]MPP+ uptake", "result": 79.6, "unit": "µM"}, {"measurement": "IC50", "setting": "hOCT3; hOCT3-HEK IC50, 10 nM [3H]MPP+ uptake", "result": "0.6 µM and 0.62 µM"}, {"measurement": "IC50", "setting": "hPMAT", "result": 1060, "unit": "µM"}]}
